Here are results for five compounds from ChEMBL document CHEMBL1201862, “PubChem BioAssay data set” (2004).

The target of one assay is T1, Aminopeptidase N (Plasmodium falciparum FcB1/Columbia, UniProt O96935).
T1 sequence (O96935 whole entry): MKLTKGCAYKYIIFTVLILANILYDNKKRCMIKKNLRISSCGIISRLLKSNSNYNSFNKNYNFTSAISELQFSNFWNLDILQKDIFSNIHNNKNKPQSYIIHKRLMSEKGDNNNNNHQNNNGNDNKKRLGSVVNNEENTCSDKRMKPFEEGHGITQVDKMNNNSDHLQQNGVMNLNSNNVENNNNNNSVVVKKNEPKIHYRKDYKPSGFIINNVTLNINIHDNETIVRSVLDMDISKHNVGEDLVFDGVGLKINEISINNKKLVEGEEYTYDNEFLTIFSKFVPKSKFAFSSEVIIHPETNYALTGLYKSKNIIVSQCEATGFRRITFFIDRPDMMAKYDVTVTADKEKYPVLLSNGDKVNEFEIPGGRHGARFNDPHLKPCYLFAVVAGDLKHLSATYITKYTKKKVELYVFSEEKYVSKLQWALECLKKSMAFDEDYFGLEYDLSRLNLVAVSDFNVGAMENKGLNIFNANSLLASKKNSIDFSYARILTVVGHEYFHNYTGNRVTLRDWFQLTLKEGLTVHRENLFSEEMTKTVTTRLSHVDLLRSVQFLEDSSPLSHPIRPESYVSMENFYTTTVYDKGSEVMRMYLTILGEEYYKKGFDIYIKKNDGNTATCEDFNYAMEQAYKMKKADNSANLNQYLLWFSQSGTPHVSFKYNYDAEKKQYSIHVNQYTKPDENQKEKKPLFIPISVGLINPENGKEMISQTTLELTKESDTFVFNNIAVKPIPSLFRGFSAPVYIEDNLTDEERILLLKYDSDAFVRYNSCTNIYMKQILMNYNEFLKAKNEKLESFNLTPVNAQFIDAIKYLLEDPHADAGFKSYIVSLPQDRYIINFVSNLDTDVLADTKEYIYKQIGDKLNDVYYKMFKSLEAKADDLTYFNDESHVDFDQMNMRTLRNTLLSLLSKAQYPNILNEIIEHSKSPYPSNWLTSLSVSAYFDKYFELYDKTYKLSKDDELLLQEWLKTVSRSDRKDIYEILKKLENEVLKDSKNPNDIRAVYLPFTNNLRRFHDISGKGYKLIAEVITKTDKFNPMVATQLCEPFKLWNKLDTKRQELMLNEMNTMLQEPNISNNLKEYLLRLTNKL
Nature of the assay: P. falciparum M1AAP inhibitors, biochemical, fluorogenic H-Leu-NHMec substrate, 1536-well (AID 1445). Details: species or system Plasmodium falciparum 3D7, 3D7.

In assay [1] the target is T2, Replicative DNA helicase DnaB (Mycobacterium tuberculosis, UniProt P9WMR3).
T2 sequence (P9WMR3 whole entry): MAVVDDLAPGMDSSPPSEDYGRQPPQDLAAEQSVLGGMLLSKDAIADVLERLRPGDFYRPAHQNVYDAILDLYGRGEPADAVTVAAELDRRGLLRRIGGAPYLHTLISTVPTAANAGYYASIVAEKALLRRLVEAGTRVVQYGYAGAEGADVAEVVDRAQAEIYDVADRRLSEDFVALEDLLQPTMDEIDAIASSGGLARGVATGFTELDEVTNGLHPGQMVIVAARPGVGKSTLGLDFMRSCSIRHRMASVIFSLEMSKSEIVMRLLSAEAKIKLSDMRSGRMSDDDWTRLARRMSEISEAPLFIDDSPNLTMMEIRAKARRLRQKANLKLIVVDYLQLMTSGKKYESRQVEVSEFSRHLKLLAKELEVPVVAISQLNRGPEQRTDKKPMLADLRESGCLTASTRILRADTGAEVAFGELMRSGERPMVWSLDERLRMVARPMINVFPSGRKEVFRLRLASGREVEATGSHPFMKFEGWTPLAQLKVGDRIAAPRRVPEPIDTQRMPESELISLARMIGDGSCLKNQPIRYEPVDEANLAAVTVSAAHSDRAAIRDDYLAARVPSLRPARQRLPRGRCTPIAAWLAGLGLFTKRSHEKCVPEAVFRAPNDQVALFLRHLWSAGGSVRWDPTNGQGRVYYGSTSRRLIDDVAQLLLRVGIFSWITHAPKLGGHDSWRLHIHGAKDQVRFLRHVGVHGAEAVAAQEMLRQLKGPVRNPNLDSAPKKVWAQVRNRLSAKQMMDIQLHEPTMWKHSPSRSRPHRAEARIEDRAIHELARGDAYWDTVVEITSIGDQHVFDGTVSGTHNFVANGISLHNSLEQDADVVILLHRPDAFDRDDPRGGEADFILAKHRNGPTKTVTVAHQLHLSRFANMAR
As to the kind of experiment: DnaB intein splicing inhibitors, dose response, biochemical, cell-free fluorescence (AID 449749). Type of assay: functional.

Another assay has as its target T3, Protein RecA (Mycobacterium tuberculosis, UniProt P9WHJ3).
T3 sequence (P9WHJ3 whole entry): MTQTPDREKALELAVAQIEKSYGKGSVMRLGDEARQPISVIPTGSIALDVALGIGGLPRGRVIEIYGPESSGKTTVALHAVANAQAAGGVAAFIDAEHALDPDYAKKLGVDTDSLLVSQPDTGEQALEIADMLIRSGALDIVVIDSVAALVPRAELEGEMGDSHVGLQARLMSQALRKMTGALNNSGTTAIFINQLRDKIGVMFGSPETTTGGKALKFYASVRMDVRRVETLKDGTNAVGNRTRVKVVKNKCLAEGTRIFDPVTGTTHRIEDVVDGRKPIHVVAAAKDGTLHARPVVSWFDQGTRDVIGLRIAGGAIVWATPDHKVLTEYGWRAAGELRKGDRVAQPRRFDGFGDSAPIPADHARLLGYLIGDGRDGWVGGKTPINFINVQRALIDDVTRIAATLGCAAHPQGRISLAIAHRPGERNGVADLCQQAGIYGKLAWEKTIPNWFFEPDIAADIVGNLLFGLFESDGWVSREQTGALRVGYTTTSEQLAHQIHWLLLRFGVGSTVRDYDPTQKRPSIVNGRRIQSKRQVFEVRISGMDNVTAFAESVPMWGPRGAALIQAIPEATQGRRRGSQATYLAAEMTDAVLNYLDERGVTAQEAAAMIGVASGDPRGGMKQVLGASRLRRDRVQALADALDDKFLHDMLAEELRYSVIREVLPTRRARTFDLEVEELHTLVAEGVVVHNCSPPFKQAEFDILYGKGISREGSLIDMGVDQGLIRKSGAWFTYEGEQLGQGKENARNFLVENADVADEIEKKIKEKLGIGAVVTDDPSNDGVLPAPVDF
As to the kind of experiment: Fluorescence Cell-Free Homogeneous Dose Retest to Identify Inhibitors of RecA-Intein Splicing Activity. [Related pubchem assays (depositor defined):AID2097, AID2223, AID489010, AID492950]. Type of assay: functional.

Assay [2] is described as follows: AlphaScreen signal interference compounds, dose response, artefact control for ARNT-TACC3 interaction inhibitor project, biochemical, luminescence, cherry-pick (AID 651705).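 Note: AlphaScreen bead proximity signal that flags compounds interfering with the detection technology; potency reflects signal decrease which marks the compound as an assay artifact.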 The format is functional.
In assay [3] the target is T4, Corticotropin-releasing factor receptor 2/Corticotropin-releasing factor-binding protein (Homo sapiens, UniProt P24387+Q13324).
T4 sequence (Q13324 whole entry): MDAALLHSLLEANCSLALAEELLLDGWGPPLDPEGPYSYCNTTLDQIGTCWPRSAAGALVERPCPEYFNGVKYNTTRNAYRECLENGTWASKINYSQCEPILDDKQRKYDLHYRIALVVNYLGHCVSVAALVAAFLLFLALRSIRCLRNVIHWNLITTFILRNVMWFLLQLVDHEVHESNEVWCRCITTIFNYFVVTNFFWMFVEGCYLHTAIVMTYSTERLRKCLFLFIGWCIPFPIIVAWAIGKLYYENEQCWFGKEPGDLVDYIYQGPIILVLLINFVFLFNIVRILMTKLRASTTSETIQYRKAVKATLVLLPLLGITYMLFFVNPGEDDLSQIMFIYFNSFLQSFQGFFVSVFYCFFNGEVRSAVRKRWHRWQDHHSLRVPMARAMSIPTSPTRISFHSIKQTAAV
T4 sequence (P24387 whole entry): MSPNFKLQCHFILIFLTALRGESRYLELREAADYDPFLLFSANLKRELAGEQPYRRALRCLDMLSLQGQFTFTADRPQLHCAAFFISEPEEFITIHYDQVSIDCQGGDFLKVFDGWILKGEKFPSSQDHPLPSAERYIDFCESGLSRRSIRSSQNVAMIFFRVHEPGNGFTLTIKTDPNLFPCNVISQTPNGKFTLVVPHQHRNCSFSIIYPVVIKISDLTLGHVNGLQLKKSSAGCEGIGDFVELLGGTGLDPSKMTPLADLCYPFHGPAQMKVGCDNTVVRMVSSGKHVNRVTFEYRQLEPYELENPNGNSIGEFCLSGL
Nature of the assay: Dose Response confirmation of uHTS hits for small molecule antagonists of the CRF-binding protein and CRF-R2 receptor complex. To be noted: read-out: IC50_Mean. The format is functional.

The target of assay [4] is T4, Corticotropin-releasing factor receptor 2/Corticotropin-releasing factor-binding protein. As to the kind of experiment: activators of CRF receptor 2 with binding protein – uHTS hits, confirmation (AID 602473). To be noted: read-out: EC50_Mean. Type of assay: functional.
Assay [5] in a line: CRF-BP/CRF-R2 complex antagonists, dose response, cell-based, uHTS hits, 384-well (AID 651639). Type of assay: functional, Homo sapiens. The following applies: read-out: IC50_Mean.
The nature of assay [6]: growth suppression of PTEN-null colon cells, dose response, cell-based, HCT116 PTEN knockout (AID 1047).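 Note: HCT116 colon tumor cells with PTEN knocked out; cells exposed to compound for 60 hours before readout; potency for loss of cell viability measured by luminescence.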 The format is functional.
Assay [7] is described as follows: growth suppression of beta-catenin-knockout colon cells, dose response, cell-based, HCT116, human colon tumor (AID 1045).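 Note: HCT116 colon tumor cells with beta catenin knocked out; cells exposed to compound for 60 hours.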 Type of assay: functional.
Assay [8] is described as follows: Luminescence Cell-Based Dose Retest to Confirm Inhibitors of Cancer Stem Cells. [Related pubchem assays (depositor defined):AID2717, AID2721]. The format is functional. To be noted: Homo sapiens.
The target of assay [9] is Heat shock protein HSP 90-alpha (Homo sapiens, UniProt P07900). The format is functional, organism-based.
The next assay has as its system INS1. Nature of the assay: beta cell apoptosis inhibitors, cytokine rescue, dose response, luminescence, retest (AID 449756).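 Note: cell death triggered by IL-1 beta plus TNF-alpha plus IFN-gamma mixture; protective hits raise ATP signal compared with cytokine alone wells.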 Type of assay: functional, cell-based. To be noted: Rattus norvegicus.
Assay [10] has as its target T5, Hepatocyte nuclear factor 4-alpha (Homo sapiens, UniProt P41235).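 Note: biochemical luminescence-based dose-response counterscreen measuring inhibition of HNF4 dimerization, run alongside a screen for blockers of ABHD5–perilipin-5 interaction; split luciferase complementation of HNF4 fusion proteins in cell lysate measuring dimerization.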
T5 sequence (P41235 whole entry): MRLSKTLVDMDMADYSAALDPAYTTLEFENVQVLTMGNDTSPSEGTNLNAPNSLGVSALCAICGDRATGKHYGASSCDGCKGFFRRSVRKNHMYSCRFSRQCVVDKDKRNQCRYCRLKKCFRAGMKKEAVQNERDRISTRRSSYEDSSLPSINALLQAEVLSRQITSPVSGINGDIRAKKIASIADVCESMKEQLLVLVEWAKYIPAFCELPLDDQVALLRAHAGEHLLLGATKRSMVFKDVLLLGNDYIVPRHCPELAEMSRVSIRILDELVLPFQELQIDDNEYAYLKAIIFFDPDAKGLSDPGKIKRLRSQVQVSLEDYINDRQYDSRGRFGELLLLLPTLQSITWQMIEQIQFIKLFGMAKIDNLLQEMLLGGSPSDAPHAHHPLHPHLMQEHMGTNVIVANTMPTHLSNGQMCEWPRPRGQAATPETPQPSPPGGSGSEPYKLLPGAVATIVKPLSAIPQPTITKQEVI
The format is functional, cell-based.

The test system of assay [11] is Streptococcus sp. 'group A'. Nature of the assay: growth inhibition of control SK(-) GAS strain, dose response, counter-screen for streptokinase expression inhibitor project, luminescence, kanamycin, BacTiterGlo, confirmation (AID 1900). The format is functional, organism-based.
Assay [12] can be described thus: inhibitors of intracellular T. cruzi replication, confirmation, NIH3T3 host cells, beta-gal luminescence (AID 2044).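 Note: intracellular parasites grown in NIH/3T3 mouse fibroblasts as host cells; luminescent beta-galactosidase reporter signal from transgenic T. cruzi replicating inside host cells; inhibitors lower the luminescence signal.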 Type of assay: functional, cell-based.
Assay [13] can be described thus: cytotoxicity toward NIH3T3 fibroblasts, dose response, counter-screen, cell-based, ATP luminescence, mouse fibroblasts (AID 2010).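 Note: cells exposed to compound for about 90 hours before reading.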 Type of assay: functional. On the technique in general: Counterscreens check selectivity or assay interference.
A further assay deals with Streptococcus. Nature of the assay: Group A Streptococcus viability loss, dose response, counter-screen for streptokinase expression inhibitor project, luminescence, BacTiterGlo (AID 1915).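 Note: potency for reduction of bacterial viability or growth.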 Type of assay: functional, organism-based.

Molecules are shown by their SMILES. Structures can show the parent of a compound that is named as a salt. Calls of active or inactive are those of the source.

For `O=C1NC(=O)C(=NNc2cc([N+](=O)[O-])ccc2O)C(=O)N1`, the IC50 at Aminopeptidase N is 11.4 µM (active). The results for the AC50 in assay [1] and in [2] were 4.84 µM (active) and 111 µM (active), respectively. Also, the EC50 at Protein RecA was 3.79 µM (active).

Consider `CC(=O)NC(Cc1ccc(C(C)C)cc1)C(=O)NC1CCN(C(=O)c2cccc(C)c2)CC1` (stereo unspecified), for which the IC50 was 24.4 µM (active) in assay [3] and 10.8 µM (active) in [5]. Moreover, the EC50 in [4] was > 53 µM (inactive).

As to `O=[N+]([O-])/C=C/c1cn(Cc2ccc(F)cc2)c2ccccc12`, the values for the EC50 in assay [6] and in [7] were 15.2 µM (active) and 16.4 µM (active), respectively. The half-maximal activity concentration (AC50) was 3.2 µM (active) in assay [8], 8.8 µM (active) in assay [9] and 16.9 µM (active) with INS1. Besides, in [10], the IC50 was 4.49 µM (active).

As to `O=C1NC(=S)S/C1=C\c1cc(Cl)ccc1Cl`, the IC50 is 2.87 µM (active) in assay [3] and 9.52 µM (active) in [5]. Moreover, in assay [4], the EC50 is > 53 µM (inactive).

With `C=C[C@]1(C)C[C@@H](OC(=O)CSCCN(CC)CC)[C@]2(C)[C@H](C)CC[C@]3(CCC(=O)[C@H]32)[C@@H](C)[C@@H]1O` [TIAMULIN FUMARATE], the EC50 was < 0.06 µM (active) in assay [11], 1.75 µM (active) in assay [12], > 60 µM (not active) in assay [13] and < 0.06 µM (active) with Streptococcus. In addition, in assay [10], the IC50 was 39.8 µM (inactive).

One may read the AC50 as the midpoint of the concentration-response curve, whichever way the signal moves.
